System: tumors expressing high levels of CYP3A4
Test: Combination of Docataxel and an ICI in patients (21 day treatment cycle)
Format: in vivo
Procedure: The compound of formula IA (150 mg po qd) is administered to patients for the first 3 days of a 21 day treatment cycle. Escalating doses of Docataxel are administered IV beginning on day 4. Docataxel is dose-escalated at 15, 25, 40, and 50 mg/m^2, where the standard dose is 75 mg/m^2.

CCCCCCN(CCCN(CC(C)C)S(=O)(=O)c1ccc2occc2c1)C(=O)OC(C)(C)C [IA]
cancer cell kill in tumors expressing high levels of CYP3A4 (IA 150 mg po qd days 1-3, Docataxel IV from day 4): improves cancer cell kill
toxicity of Docataxel (IA 150 mg po qd days 1-3, lower dose of docataxel and lower Cmax while maintaining AUC): diminishes toxicity
variability in AUC and drug response of Docataxel (IA 150 mg po qd days 1-3 of 21 day cycle, Docataxel IV from day 4, 15-50 mg/m^2): decreases variability in AUC and drug response

Source: patent US20200289456A1, “METHODS FOR INHIBITING TUMORS AND DRUG RESISTANCE” (SEQUOIA PHARMACEUTICALS, INC., priority 2015, published 2020)
